4 compounds from patent US20020042374A1, “METHOD OF TREATING INSULIN INSENSITIVITY AND SYNDROME X” (priority 1997, published 2002) can be followed below.

The target in one series is human SSTR-1 (Homo sapiens, UniProt P30872). Description: Somatostatin receptor binding assay, hSSTR-1.
Another series has as its target human SSTR-2 (Homo sapiens, UniProt P30874). Description: Somatostatin receptor binding assay, hSSTR-2.
The target in a further series is human SSTR-4 (Homo sapiens, UniProt P31391). Nature of the series: Somatostatin receptor binding assay, hSSTR-4.
Chain of human SSTR-4 (P31391 whole entry): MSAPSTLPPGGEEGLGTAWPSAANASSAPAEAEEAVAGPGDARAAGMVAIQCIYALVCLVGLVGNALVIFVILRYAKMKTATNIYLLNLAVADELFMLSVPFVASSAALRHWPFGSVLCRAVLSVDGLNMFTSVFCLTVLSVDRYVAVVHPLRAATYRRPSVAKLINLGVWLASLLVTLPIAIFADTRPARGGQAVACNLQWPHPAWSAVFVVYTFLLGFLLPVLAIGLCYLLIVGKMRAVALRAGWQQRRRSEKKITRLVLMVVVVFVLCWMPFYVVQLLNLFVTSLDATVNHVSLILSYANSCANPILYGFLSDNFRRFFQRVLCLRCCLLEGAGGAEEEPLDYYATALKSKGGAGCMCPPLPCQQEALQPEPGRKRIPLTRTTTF
For another series, the target named is human SSTR-3 (Homo sapiens, UniProt P32745). Nature of the series: Somatostatin receptor binding assay, hSSTR-3.
Chain of human SSTR-3 (P32745 whole entry): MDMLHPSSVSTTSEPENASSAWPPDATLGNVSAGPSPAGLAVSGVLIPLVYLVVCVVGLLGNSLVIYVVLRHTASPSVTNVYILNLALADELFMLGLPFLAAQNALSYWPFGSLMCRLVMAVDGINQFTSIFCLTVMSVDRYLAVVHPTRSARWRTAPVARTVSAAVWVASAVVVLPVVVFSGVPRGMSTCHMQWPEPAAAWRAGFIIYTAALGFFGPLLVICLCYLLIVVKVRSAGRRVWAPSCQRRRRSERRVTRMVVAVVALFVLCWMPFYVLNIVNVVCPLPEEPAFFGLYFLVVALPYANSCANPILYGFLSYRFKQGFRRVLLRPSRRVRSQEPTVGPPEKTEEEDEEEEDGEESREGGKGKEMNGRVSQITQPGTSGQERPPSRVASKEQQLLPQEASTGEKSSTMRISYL
A further series has as its target human SSTR-5 (Homo sapiens, UniProt P35346). Description: Somatostatin receptor binding assay, hSSTR-5.
In series [1] the test system is fatty (fa/fa) Zucker rats. Particulars: 3 mg/kg s.c. twice daily, 6 days.
Series [2] concerns fatty (fa/fa) Zucker rats. Description: Insulin sensitivity study, oral glucose challenge after one week treatment. Format: in vivo, rat. Particulars: 3 mg/kg s.c. twice daily, 7 days. How it is done:
Male fatty Zucker rats (Harlan-Olac, Bicester, Oxon, U.K.), which were 15-17 weeks old, were randomly divided into two groups. The animals were house in pairs in a normal 12 hour light:12 hour darkness cycle at 20±2° C. and fed a standard laboratory rat diet (Beekay rat and mouse diet, Bantin & Kingman, Hull, Humberside, U.K.) ad libitum. For the group assigned to receive drug treatment, the rats received BIM-23268C at 3 mg/kg, by subcutaneous injection, twice a day at 10:00 AM and 5:00 PM. The other group, the control group, was treated with a subcutaneous injection of 0.lml/100 g of saline twice a day at 10:00 AM and 5:00 PM. […] On the last day of treatment, at 5:00 PM food was removed, and the rats were fasted overnight.
A method for assessing insulin sensitivity is to administer an oral glucose challenge and monitoring the secretion of insulin and disposal of glucose from the blood stream over a 240 min period (Bergman, R. N., et al., Endocrine Review 6:45-86 (1985)). […] 20 μl blood samples were taken from tail vein (Abdel-Halim, S. M., et al., Diabetes 43:281-288 (1994)) at −60 min, −30 min, 0 min, 30 min, 60 min, 90 min, 120 min, and 240 min.
The 20 μl samples were taken into 380 μl of hemolysis reagents (Sigma, Poole, Dorset, UK) containing 50 mg/liter of digitonin (Cat# D-1407) and 100 mg/liter of Maleimide (M-3766). From this, 100 μl of the hemolysed blood sample was added to 0.9 ml of Tinder reagent (Sigma Enzymatic calorimetric assay for blood glucose, Cat# 315-100, Sigma Chemical Co. Ltd, Poole, Dorset, UK). Blood glucose was determined according to vendor's recommendation at 505 nm.
Insulin was measured by the conventional radioimmunoassay method as described (Dunmore, S., & Beloff-Chain, A., J Endocrinol. 92:15-21 (1982)). Samples were assayed in triplicates with a 1:30000 dilution of an insulin antiserum (from guinea pig)raised in the laboratory (Dunmore, S. J., et al., J. Endocrinol. 137:375-381 (1993), and using ^125I-labelled bovine insulin, iodinated by the chloramine T method (Sambrook, et al., Molecular Cloning- A Laboratory Manual, Ed. 2., Cold Spring Harbor Laboratory Press, 1989). Rat insulin (2000U/0.1 ml, Novo Nordisk Laboratories, Basingstoke, Hants, U.K.) was used as a standard in the assay. The standards and samples were diluted in assay buffer containing NaH2PO4 5.7 g/L, bovine serum albumin (Sigma A4378, Sigma Chemical Co. Ltd., Poole, Dorset, UK) 5.0 g/L, NaN3 1.0 g/L buffered to pH 7.4). Antibody-bound insulin was separated on from free insulin by the addition of a second antibody (donkey anti-guinea pig Ig) coated on cellulose, Sac-Cel (IDS, Boldon, Tyne & Wear, UK). The antibody-bound insulin precipitate was separated by centrifugation. Counts bound were measured on an LKB Rackgamma solid scintillation counter.

The test system of series [3] is Obese (fa/fa) Zucker rats. Description: Lipidemia study, plasma glycerol and triglycerides. The format is in vivo, rat. How it is done: Obese (fa/fa) Zucker rats were treated as in example 1 above. On the last day of treatment (day 6), food was removed at 5:00 p.m., and the rats were fasted overnight. At 9:00 a.m. the next day, the animals were subjected to a glucose challenge, given as 0.8 gram/kg of glucose orally. Periodic 400 μl of blood samples were taken from the tail vein (Peterson, R. G., ILAR News, 32:16-19 (1990)) 60 min. and 30 min. before and at 30, 60, 90, and 120 min. after the administration of the glucose challenge (0.8 gram/kg orally). Aprotinin (Traysylol, Bayer UK, Hayward's Health, W. Sussex, U.K.) and heparin (Sigma Chemical Co., Poole, Dorset, U.K.) were added to the blood samples to a final concentration of 400 KIU/ml and 100 units/ml, respectively. Plasma fractions were prepared from these samples by centrifugation at 4000×G in a microfuge, for the estimation of triglycerides and glycerol. Samples were then stored at −80° C. until assayed.
Plasma glycerol and triglycerides were determined using the Sigma Enzymatic (Tinder) calorimetric assay kit (Cat #337-B, Sigma Chemical Co., Poole, Dorset, U.K.) and measuring absorbance at 540 nm in a spectrophotometer.

[4] abbreviates: 3 mg/kg s.c. twice daily, 6 days, samples 30 and 60 minutes before oral glucose challenge, FIG. 1/2.
Setting [5] is: throughout the 2-hour test period after oral glucose challenge.

As usually defined, the Ki is a measure of affinity in units of concentration, obtained from inhibition or displacement.

Where two headings read alike, the source gives them in different places. Positions of bridges follow the written chain, without caps; N, C: chain ends. Non-standard residues stand in square brackets, D forms with d. Residues, ends and D or L forms follow the SMILES beside them.

Chain of human SSTR-5 (P35346 whole entry): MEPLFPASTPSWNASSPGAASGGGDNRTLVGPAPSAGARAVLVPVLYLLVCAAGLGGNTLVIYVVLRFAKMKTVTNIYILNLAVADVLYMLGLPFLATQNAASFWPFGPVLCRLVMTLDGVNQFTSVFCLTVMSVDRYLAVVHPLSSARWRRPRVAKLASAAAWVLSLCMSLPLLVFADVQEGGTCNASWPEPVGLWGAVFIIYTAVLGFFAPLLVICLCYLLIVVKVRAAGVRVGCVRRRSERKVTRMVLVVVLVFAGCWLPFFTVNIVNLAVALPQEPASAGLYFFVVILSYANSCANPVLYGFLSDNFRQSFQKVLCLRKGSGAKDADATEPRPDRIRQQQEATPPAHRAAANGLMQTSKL
Chain of human SSTR-2 (P30874 whole entry): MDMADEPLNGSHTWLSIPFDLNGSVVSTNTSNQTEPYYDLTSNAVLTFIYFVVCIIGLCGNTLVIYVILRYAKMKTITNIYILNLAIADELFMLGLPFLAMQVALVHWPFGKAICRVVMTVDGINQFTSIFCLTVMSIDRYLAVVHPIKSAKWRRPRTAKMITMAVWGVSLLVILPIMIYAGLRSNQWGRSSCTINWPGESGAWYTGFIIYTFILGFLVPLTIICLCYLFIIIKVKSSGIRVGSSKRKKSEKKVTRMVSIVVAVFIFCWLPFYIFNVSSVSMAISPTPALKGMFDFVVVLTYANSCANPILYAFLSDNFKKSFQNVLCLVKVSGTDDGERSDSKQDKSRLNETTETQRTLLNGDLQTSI
Chain of human SSTR-1 (P30872 whole entry): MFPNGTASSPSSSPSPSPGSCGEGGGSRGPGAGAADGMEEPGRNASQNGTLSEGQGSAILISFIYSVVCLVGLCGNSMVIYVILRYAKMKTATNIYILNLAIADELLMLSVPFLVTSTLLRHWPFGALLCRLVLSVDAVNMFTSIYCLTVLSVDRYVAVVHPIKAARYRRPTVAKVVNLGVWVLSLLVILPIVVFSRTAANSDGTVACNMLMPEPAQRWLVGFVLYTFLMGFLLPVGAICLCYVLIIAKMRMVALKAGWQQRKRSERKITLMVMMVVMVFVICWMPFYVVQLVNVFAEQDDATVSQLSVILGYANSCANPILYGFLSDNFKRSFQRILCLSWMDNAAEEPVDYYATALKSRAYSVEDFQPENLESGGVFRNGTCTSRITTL

`C[C@@H](O)[C@@H]1NC(=O)[C@H](CCCCN)NC(=O)[C@@H](Cc2c[nH]c3ccccc23)NC(=O)[C@H](Cc2ccc(O)cc2)NC(=O)[C@H](Cc2ccccc2)NC(=O)[C@@H](N)CSSC[C@@H](C(N)=O)NC(=O)[C@H](Cc2ccccc2)NC1=O` [BIM-23295, H-Cys-Phe-Tyr-D-Trp-Lys-Thr-Phe-Cys-NH2] (H-CFY[dW]KTFC-NH2; disulfide 1-8): the Ki on human SSTR-1 is 86.9 nM; on human SSTR-2, 6.19 nM; on human SSTR-4, 3.4 nM; at human SSTR-3, 9.7 nM; on human SSTR-5, 0.34 nM.

With `C[C@@H](O)[C@@H]1NC(=O)[C@H](CCCCN)NC(=O)[C@@H](Cc2c[nH]c3ccccc23)NC(=O)[C@H](Cc2ccccc2)NC(=O)[C@H](Cc2ccccc2)NC(=O)[C@@H](N)CSSC[C@@H](C(N)=O)NC(=O)[C@H](Cc2ccccc2)NC1=O` [BIM-23268, H-Cys-Phe-Phe-D-Trp-Lys-Thr-Phe-Cys-NH2] (H-CFF[dW]KTFC-NH2; disulfide 1-8), the Ki at human SSTR-1 (read-out: Ki hSSTR-1) is 1230 nM. The Ki on human SSTR-2 (read-out: Ki hSSTR-2) is 15.1 nM. In series [1], the “amount of food consumed over the entire treatment period versus control” value is given as “no difference”; the “body weight gain versus control” value is on record as “lower”; the “toxic effect, appearance of treated group” value is reported as “appeared healthy”. In addition, the “group mean weight after six days” value in series [1] (413.6 at start of trial, control 414.09 to 418.89) was found to be 413.6. Besides, in series [1] (control 26.0), the average food consumption was found to be 25.9 g/rat/day. Moreover, the Ki at human SSTR-5 (read-out: Ki hSSTR-5) stood at 0.42 nM. Besides, the insulin-sensitivity entry in series [2] is given as “produced an improvement in insulin-sensitivity”. For the same compound, in series [2] (oral glucose 0.8 g/kg after overnight fast), the glucose tolerance result is “did not show an impairment in glucose tolerance”. Besides, the “glucose stimulated insulin secretion to the glucose challenge” value in series [2] (oral glucose 0.8 g/kg after overnight fast, vs saline group) is “significant suppression”. Besides, the “plasma glucose profile versus untreated group” value in series [2] (oral glucose 0.8 g/kg, up to 240 min) is listed as “not significantly different”. In series [3] (setting [4]), the plasma glycerol entry is listed as “significantly lowered” and the plasma triglycerides entry is listed as “significantly lowered”. Moreover, the hypertriglyceridemia result in series [3] (6-day treatment, 3 mg/kg s.c. twice daily) is given as “effective in reducing hypertriglyceridemia”. Also, in series [3] (setting [5]), the plasma glycerol result is recorded as “significantly lower” and the plasma triglycerides entry is recorded as “significantly lower”.

On to `C[C@@H](O)[C@@H]1NC(=O)[C@H](CCCCN)NC(=O)[C@@H](Cc2c[nH]c3ccccc23)NC(=O)[C@H](Cc2ccc(O)c(I)c2)NC(=O)[C@H](Cc2ccccc2)NC(=O)[C@@H](N)CSSC[C@@H](C(N)=O)NC(=O)[C@H](Cc2ccccc2)NC1=O` [BIM-23313, H-Cys-Phe-Tyr(I)-D-Trp-Lys-Thr-Phe-Cys-NH2], for which the Ki at human SSTR-1 (membranes of transfected CHO-K1 cells, [125I-Tyr11]somatostatin-14 0.05 nM, read-out: Ki hSSTR-1) is 15.1 nM.

Consider `NCCCC[C@@H]1NC(=O)[C@@H](Cc2c[nH]c3ccccc23)NC(=O)[C@H](Cc2ccccc2)NC(=O)[C@H](Cc2ccccc2)NC(=O)[C@@H](N)CSSC[C@@H](C(N)=O)NC(=O)[C@H](Cc2ccccc2)NC(=O)[C@H](CO)NC1=O` [BIM-23284, H-Cys-Phe-Phe-D-Trp-Lys-Ser-Phe-Cys-NH2] (H-CFF[dW]KSFC-NH2; disulfide 1-8), for which the Ki at human SSTR-1 was determined as 27.9 nM; on human SSTR-2, 19.3 nM; on human SSTR-4, 58.6 nM; on human SSTR-3, 35.6 nM; on human SSTR-5, 0.85 nM.
